The test system of experiment [1] is Spodoptera exigua. The experiment can be described thus: Insecticidal activity against Spodoptera exigua. The experiment is classed as functional.
Experiment [2] deals with Spodoptera exigua. Briefly: Insecticidal activity against Spodoptera exigua assessed as increase of larval mortality at 5 umol/g in artificial diet after 9 days relative to control. It is filed as functional.
Experiment [3] relates to Spodoptera exigua. The experiment can be described thus: Insecticidal activity against Spodoptera exigua assessed as reduction of weight at 5 umol/g in artificial diet after 9 days relative to control. It is filed as functional, organism-based.

Structures are written as SMILES. The source made the active and inactive calls. The rule behind the calls is not given here. Bounds are passed on as bounds.

With `CCCCCCCCCCCCCCCc1ccco1`, in experiment [1], the LC50 was determined as 1031 µg/g. Also, the Activity in experiment [2] turned out to be 93%.

As to `CCCCCCCCCCCCCCCCCc1ccco1` [2-(HEPTADECYL)FURAN], in experiment [1], the LC50 amounted to 1206 µg/g. Further, the Activity in experiment [2] was 95%.

Take `CCCCCCCCCCCCCCc1ccco1`: in experiment [3], the outcome was Active. The Activity in experiment [2] was less than 50%.

`CCCCCCCCCCCCCCCCCCc1ccco1`: the Activity in experiment [2] amounted to 68%.
